Structures are written as SMILES.

Drawing on the METLIN SMRT retention time set (Domingo-Almenara et al. 2019), this text covers RP-LC retention time for 77 molecules.

A short description of this data set: gradient 5% acetonitrile 3 min, to 50% in 2 min, to 85% in 15 min, held 3 min, 100 µL/min. The settings on record: column: Zorbax Extend-C18 2.1 x 50 mm; eluents: water / acetonitrile, 0.1% formic acid. An outline of the steps:
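Retention times come from adduct peaks that were picked computationally and then checked by hand. The standards, pure and pooled in mixtures of ~100 molecules, were run on a Zorbax Extend-C18 column (2.1 × 50 mm, 1.8 μm) at 100 μL/min with water and acetonitrile, each with 0.1% formic acid. Detection was by quadrupole time-of-flight mass spectrometry in positive and negative ionization mode, with a dead volume of 40 μL and a dwell volume of 900 μL.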
`Cc1cc(Nc2nc(C(=O)N3CCN(c4ccccn4)CC3)cc3occc23)ccc1Br`: the RP-LC retention time amounted to 754 s.
`O=c1c2sccc2n(Cc2nc(-c3ccc(C(F)(F)F)cc3)no2)c(=O)n1-c1cccc(F)c1` returned an RP-LC retention time of 1090 s.
For `C=CCN(Cc1nc(-c2cccc(C)c2)no1)C(=O)Nc1ccc(C)cc1`, the RP-LC retention time is 1110 s.
`N#Cc1ccc(-c2nc(-c3nn(CCN4CCOCC4)c4ccccc34)no2)cc1` displayed an RP-LC retention time of 692 s.
`Cc1nc2cc(-c3noc(Cc4cccs4)n3)ccc2n(C2CCCC2)c1=O`: the RP-LC retention time came out at 1200 s.
The molecule `N#Cc1ccc(C(=O)NCCn2c(C(F)(F)F)nc3cccnc32)cc1` returned an RP-LC retention time of 720 s.
The same measure for `COc1ccc(-c2noc(CN3CCC(C(=O)NC4CCCCC4)CC3)n2)cc1OC`: 670 s; for `CCOC(=O)C1CCN(C(=O)C2CCN(c3nnc(-c4ccc(OC)cc4)o3)CC2)CC1`: 792 s; for `CCCN(CCC)CCCNC(=O)C1CCCN(c2nnc(N3CCCC3=O)s2)C1` (configuration not stated): 584 s.
In the case of `Cc1nnc(-c2cn(CC(=O)NC3CCCCCCC3)c3ccccc23)o1` it was 903 s.
The same measure for `CCCNC(=O)N1CCN(c2nc(CC(C)C)c3c(c2C#N)CC(C)(C)OC3)CC1`: 1090 s; for `CCc1ccc(N2C(=O)CN(S(=O)(=O)CC)CC2(C)C(=O)NCc2ccccc2)cc1` (configuration not stated): 868 s.
For the molecule `O=C(Nc1ccccc1)N1CC(c2nc(CCOCC3CCCC3)no2)C1`, the RP-LC retention time came out at 944 s.
With `CCCN(C)c1nccn2c(=O)n(CC(=O)Nc3cccc(C)c3)nc12`, the RP-LC retention time was 687 s.
Turning to `Cc1cc2n(n1)CCCN2C(=O)CCC(=O)N1CCN(c2ccc(Cl)cc2)CC1`, the RP-LC retention time worked out at 758 s.
Consider `COc1ccc(Br)cc1CNC(=O)CCC(=O)N1CCSc2nc(C)cc(C)c21`, for which the RP-LC retention time was 725 s.
For `CCNS(=O)(=O)c1cc(-c2c(C)noc2C)ccc1C`, the RP-LC retention time came to 807 s.
`CN(CCNC(=O)C1=Cc2ccccc2OC1)C1CCCCC1` showed an RP-LC retention time of 675 s.
As for `O=C(Cn1c(=O)cnc2cc(C(=O)NC3CCCC3)ccc21)NCc1ccc(F)cc1F`, the RP-LC retention time turned out to be 721 s.
As for `COc1ccc(OC)c(S(=O)(=O)N2CCCC(C(=O)NC3CCCCC3)C2)c1` (configuration not stated), the RP-LC retention time came to 867 s.
The same measure for `Cc1cccc(NC(=O)N2CCN(c3nc(C)cc(Nc4ccccc4)n3)CC2)c1`: 733 s; for `CCCS(=O)(=O)c1nc2ccc(NS(=O)(=O)c3cc(F)ccc3F)cc2s1`: 918 s.
With `CCNC(=O)C1Cc2cc(C(F)(F)F)ccc2N2CCN(Cc3ccc(F)cc3)CC12` (configuration not stated), the RP-LC retention time amounted to 610 s.
`O=C1CCCc2nc(N3CCN(c4ncccn4)CC3)nc(Nc3ccccc3)c21` yielded an RP-LC retention time of 1110 s.
For `CS(=O)(=O)N1CCC(C(=O)Nc2ccc(Br)cc2)Oc2ccccc21` (configuration not stated), the RP-LC retention time amounted to 980 s.
The same measure for `CSc1nnc(-c2nn(C)c3c2CN(C(=O)c2ccc(Cl)cc2)CC3)n1C`: 736 s; for `COCc1nc2nccc(-c3ccc(OC)cc3)n2n1`: 690 s.
In turn, `Cc1ncc2c(n1)C[C@@H]1CC[C@H]2N1S(=O)(=O)c1ccccc1` came in with an RP-LC retention time of 695 s.
Molecule `O=C(C1CC1)N1CCc2sc(S(=O)(=O)Nc3cccc(Cl)c3)cc2C1` showed an RP-LC retention time of 879 s.
In the case of `O=c1cc(-c2ccncc2)nc(N2CCCC2)n1Cc1ccccc1F` it was 1220 s.
On to `O=S(=O)(NCc1ccco1)c1cc(-c2nnc(-c3ccccc3)o2)ccc1F`, for which the RP-LC retention time came out at 902 s.
The same measure for `Cn1cc(S(=O)(=O)N2CCC(C(=O)N3CCCCCC3)CC2)cc1C(=O)N1CCCC1`: 732 s; for `CCCN1CCN(C(=O)c2sc3ncn(CC(=O)N4CCCCC4C)c(=O)c3c2C)CC1` (configuration not stated): 596 s; for `Cc1oc2c(c1C(=O)Nc1ccc(F)cc1Br)C1=NC(C)(C)CN1C=N2`: 671 s.
`CCOC(=O)c1ccc(N2C=C(C(=O)N3CCCC3)S(=O)(=O)c3ccc(F)cc32)cc1`: the RP-LC retention time was 845 s.
The same measure for `CN(CC1CCOCC1)C(=O)c1ccsc1`: 643 s; for `CCc1sc(NC(=O)c2cc(Cl)c(NC(C)=O)cc2OC)nc1-c1ccccc1`: 1170 s.
The molecule `Fc1cc(F)cc(CN2CCCN(c3ncccc3-c3nc(C4CC4)no3)CC2)c1` gave an RP-LC retention time of 720 s.
The same measure for `CCC(C)n1ncn(-c2ccc(N3CCN(c4ccc(OC[C@@H]5CO[C@@](Cn6cncn6)(c6ccc(Cl)cc6Cl)O5)cc4)CC3)cc2)c1=O` (some centres not stated): 1060 s.
Molecule `CCCn1cnc2cc(-c3noc(COc4ccc(F)cc4)n3)ccc21` returned an RP-LC retention time of 787 s.
The same measure for `CCN1C(=O)COc2ccc(-c3csc(NC(=O)c4ccc(OC)cc4)n3)cc21`: 976 s.
`Cc1ccccc1Nc1c(-c2ccc(Cl)cc2)nc2ncccn12` registered an RP-LC retention time of 908 s.
As for `CC(=O)c1sc(NC(=O)c2c[nH]c3ccccc3c2=O)nc1C`, the RP-LC retention time is 615 s.
In the case of `CCC1=NS(=O)(=O)c2cccnc2N1c1ccc(CC)cc1` it was 931 s; in that of `O=C(NCCc1cccs1)c1ccc2ccnc(N3CCN(c4ccc(Cl)cc4)CC3)c2c1`, 931 s.
Molecule `O=C(Cc1cccc(F)c1)N1CCN(c2cc(-c3cccs3)[nH]n2)CC1` showed an RP-LC retention time of 798 s.
As for `Cc1cccc(N2CCN(c3ccc4cc(S(=O)(=O)N5CCCC5)ccc4n3)CC2C)c1` (configuration not stated), the RP-LC retention time came out at 962 s.
Take `COc1ccc(OC)c(S(=O)(=O)N2CCC(C)(c3noc(C)n3)CC2)c1`: the RP-LC retention time is 866 s.
In the case of `O=C(COc1ccc(-c2nnc3n2CCCC3)cc1)Nc1cccc(Br)c1` it was 642 s; in that of `CCn1c(SCC(=O)N(C)C)nnc1-c1ccc2c(c1)OCCCO2`, 671 s; in that of `CCn1ccc(C(=O)N2CCC(CC(=O)NC3CC3)C2)n1` (configuration not stated), 630 s.
The molecule `Cc1ccc2c(Nc3ccc(C(C)C)cc3)c(C(=O)N3CCCC(C)C3)cnc2n1` (configuration not stated) yielded an RP-LC retention time of 737 s.
In turn, `CCn1c(=O)n(CC)c2cc(NC3=NS(=O)(=O)c4ccccc43)ccc21` came in with an RP-LC retention time of 702 s.
Molecule `CCc1nc(N)n(CC(=O)Nc2ccc(C)c(C)c2)c(=O)c1C` gave an RP-LC retention time of 650 s.
As to `CN1C(=O)c2cc(S(=O)(=O)Nc3cccc(Cl)c3)ccc2Oc2cccnc21`, the RP-LC retention time came out at 952 s.
As to `CCOc1ccc(NC(=O)c2cnc(N3CCSCC3)nc2N)cc1`, the RP-LC retention time was 712 s.
Consider `COc1ccc(N2CCN(c3nnc(-c4nnc(C)o4)c4ccccc34)CC2)cc1`, for which the RP-LC retention time was 744 s.
The same measure for `CCC(C)NC(=O)Cn1nc(-c2ccccc2)c2cc(Cl)ccc21` (configuration not stated): 1060 s; for `Cc1cc(=O)n(CC(=O)Nc2cc(F)ccc2C)c(N2CCCCC2)n1`: 699 s; for `C[C@H](NC[C@H](O)CP(=O)(O)Cc1ccccc1)c1ccc(Cl)c(Cl)c1`: 722 s.
The same measure for `CC(C)NC(=O)c1ccc2ncnc(N3CCCCC3)c2c1`: 586 s; for `CCc1nc2cc(-c3noc(Cc4cccc(C(F)(F)F)c4)n3)ccc2o1`: 1170 s; for `O=C(Cn1c2ccccc2c2ncn(Cc3nc(-c4ccccc4)no3)c(=O)c21)NC1CCCCC1`: 976 s.
`COc1cc(NC(=O)CN2C(=O)CC(c3ccccc3)=Nc3ccccc32)cc(OC)c1` registered an RP-LC retention time of 973 s.
`O=C1C2N=NN(c3ccccc3)C2C(=O)N1c1ccccc1` (configuration not stated) gave an RP-LC retention time of 907 s.
Turning to `COc1ccc(CNC(=O)NCCc2nc3cccnc3n2Cc2ccccc2)cc1`, the RP-LC retention time was determined as 710 s.
For the molecule `CCc1nc(-c2csc(S(=O)(=O)N3CCC(C(=O)NC4CC4)CC3)c2)no1`, the RP-LC retention time turned out to be 766 s.
`Cc1ccc(-c2nc(C3CC(=O)N(c4ccc(Cl)cc4)C3)no2)cc1C` (configuration not stated) yielded an RP-LC retention time of 1200 s.
In the case of `CCOC(=O)COC(=O)c1cn(-c2ccc(OC)cc2)c(=O)c2ccccc12`, the RP-LC retention time was 1010 s.
Consider `Cn1c(=O)c2nc(SCCC(=O)Nc3ccc(N4CCOCC4)cc3)n(C)c2n(C)c1=O`, for which the RP-LC retention time came to 620 s.
Molecule `CCc1ccc(S(=O)(=O)N2CCCC2c2nc(-c3cccc(Cl)c3)no2)cc1` (configuration not stated) returned an RP-LC retention time of 1300 s.
`O=C(c1ccc(Br)cc1)N1CCc2[nH]nc(C(=O)N3CCOCC3)c2C1` gave an RP-LC retention time of 661 s.
Molecule `O=C(NCCc1ccccn1)c1sc2ncccc2c1-n1cccc1` displayed an RP-LC retention time of 610 s.
`Cc1cc(NS(=O)(=O)c2cc(-c3[nH]ncc3C(=O)N3CCCCC3)oc2C)ccc1F` yielded an RP-LC retention time of 783 s.
`O=C(NC1CCN(Cc2ccccc2)CC1)C1CCCN(S(=O)(=O)N2CCOCC2)C1` (configuration not stated) returned an RP-LC retention time of 593 s.
The same measure for `COc1ccc(N2CCN(C(=O)[C@@H]3[C@H](c4cc(OC)c(OC)c(OC)c4)c4cc5c(cc4[C@H](O)[C@H]3CO)OCO5)CC2)cc1`: 698 s.
For the molecule `Cc1[nH]c(C(=O)N2CCCC(C(=O)NC3CCCCCC3)C2)c(C)c1C(=O)OC(C)C` (configuration not stated), the RP-LC retention time was 944 s.
